Test results taken from paper PMC4478171, “Synthesis, characterization, and preclinical validation of a PET radiopharmaceutical for interrogating Aβ (β-amyloid) plaques in Alzheimer’s disease” (EJNMMI Research, 2015).
pKd: −log10 of the molar value.

Experiments:
[1] = Lipophilicity (log P); type: physicochemical; settings: octanol/water
[2] = biological target: T1, Aβ1-42 fibrils (Homo sapiens, UniProt P05067); test: Saturation radioligand binding to preformed Aβ1-42 fibrils
T1 construct: synthetic Aβ1-42 peptide (1 mg) (Bachem, Torrance, CA); purchased Bachem, Torrance, CA; host or cells: chemical synthesis
Experimental: Aβ1-42 fibrils were obtained using literature procedures described earlier. Briefly, synthetic Aβ1-42 peptide (1 mg) (Bachem, Torrance, CA) was initially dissolved in DMSO (50 μL) and diluted with the addition of mQ-H2O (925 μL). Finally, 1 M Tris-HCl (25 μL; pH 7.6) was added to the peptide solution to obtain a final peptide concentration (222 μM; 1 mg/mL). Thereafter, the peptide solution was incubated for 30 h at 37°C with shaking at 1,000 rpm in an Eppendorf Thermomixer. The fibril formation was confirmed by ThioT fluorescence. For determining the concentration of fibrils, the fibril reaction mix was centrifuged at 15,000×g for 15 min to separate the fibrils from the monomer. The concentration of Aβ monomer in the supernatant was determined in a BCA protein assay. […] The exact hot:cold (^18F-7B:7A) ratio was measured in each experiment by counting an aliquot of a sample (2 μL) of the radioligand preparation in a scintillation counter. Binding of ^18F-7B to human brain homogenates was assessed by incubating samples of insoluble fraction (5-μg insoluble protein/well) from AD subjects, with increasing concentrations of ^18F-7B (1.5 to 100 nM). Nonspecific binding was determined in parallel experiments utilizing 7A (2.5 μM) for Aβ1-42 fibrils and 7A (5 μM) for AD tissue as a competitor. […] Bmax values were calculated in pmol/gram wet weight of brain tissue.

[3] = biological target: AD homogenates (Homo sapiens, UniProt P05067); test: Saturation radioligand binding to AD brain homogenates (insoluble fraction)
Experimental: Well-established literature procedures were used for preparation of AD homogenates. Grey matter was isolated from frozen postmortem frontal cortex tissue by dissection with a scalpel. To prepare insoluble fractions, dissected tissue was sequentially homogenized in four buffers (3 mL/g wet weight of tissue) with glass dounce tissue grinders (Kimble, Vineland, NJ, USA): 1) high salt (HS) buffer: 50 mM Tris-HCl pH 7.5, 750 mM NaCl, 5 mM EDTA; 2) HSbuffer with 1%Triton X-100; 3) HSbuffer with 1%Triton X-100 and 1 M sucrose; and 4) phosphate-buffered saline (PBS). Homogenates were centrifuged at 100,000×g; after each homogenization step, the pellet was resuspended, and homogenized in the next buffer in the sequence. For comparison in initial binding studies, unfractionated tissue homogenates were also prepared by homogenization of tissue in only PBS. Binding assays were performed using previously described methods. Briefly, a fixed concentration (1 μM/well) of Aβ1-42 fibrils was incubated for 1 h at 37°C with increasing concentrations of ^18F-7B (1.5 to 100 nM) in 30 mM Tris-HCl pH 7.4, 0.1% BSA in a reaction volume of 150 μL. A fixed ratio of hot:cold (^18F-7B and 7A) was used for all radioligand concentrations. The exact hot:cold (^18F-7B:7A) ratio was measured in each experiment by counting an aliquot of a sample (2 μL) of the radioligand preparation in a scintillation counter. Binding of ^18F-7B to human brain homogenates was assessed by incubating samples of insoluble fraction (5-μg insoluble protein/well) from AD subjects, with increasing concentrations of ^18F-7B (1.5 to 100 nM). Nonspecific binding was determined in parallel experiments utilizing 7A (2.5 μM) for Aβ1-42 fibrils and 7A (5 μM) for AD tissue as a competitor. Bound and free radioligand were separated by vacuum filtration through glass fiber 96-well filter plates (Millipore Multiscreen FB filter plate), followed by washes using ice-cold assay buffer (3 × 150 μL). Glass fiber filters containing the bound ligand were mixed with Optiphase Supermix scintillation cocktail (150 μL; PerkinElmer, Waltham, MA, USA) and counted immediately. All data were obtained in triplicate and analyzed by curve fitting to a one-site binding model using nonlinear regression employing Graphpad Prism software (version 4.0) to determine Kd and Bmax values. Bmax values were calculated in pmol/gram wet weight of brain tissue.

AD homogenates, sequence (P05067 672-711 limits assumed): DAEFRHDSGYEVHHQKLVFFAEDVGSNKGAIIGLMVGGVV
T1 sequence (P05067 672-713 limits assumed): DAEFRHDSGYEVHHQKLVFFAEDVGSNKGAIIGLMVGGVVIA

- logP [1]: 1.3
- Bmax [2]: 6 pmol/nmol Aβ
- pKd ([2]; one-site model): 7.21
- fold higher affinity for AD homogenates compared with fibrils ([3]; AD homogenates vs Aβ1-42 fibrils): 3.4 fold
- Bmax ([3]; AD homogenates, one-site model): 1,432 pmol/g wet weight
- fold lower binding affinity to AD homogenates than Florbetapir ([3]; comparator value from ref 11): 5 fold
- fold lower binding affinity to AD homogenates than Flutemetamol ([3]; comparator value from ref 16): 2.6 fold
- fold lower BP than 11C-PIB ([3]; homogenates, comparator from ref 28): 6 fold
- fold lower BP than 18F-Florbetaben ([3]; homogenates, comparator from ref 36): 2 fold
- pKd ([3]; saturable specific binding, one-site model, nonspecific binding with 7A (5 μM)): 7.75
Structure (SMILES): CN(C)c1ccc(/C=C/c2nc3ccc(OCC[18F])cc3s2)cn1 [^18F-7B, (E)-5-(2-(6-(2-[^18F]-fluoroethoxy)-benzo[d]thiazol-2-yl)vinyl)-N,N-dimethylpyridin-2-amine]
